Results on one compound are retold here after patent EP3026118A1, “Enzymatic process for producing 3-butenal and 3-buten-1-ol” (LANXESS Deutschland GmbH, priority 2014, dated 2016).

The target in this test is T1, Acetaldehyd-Dehydrogenase PS-DmpF (Pseudomonas sp., UniProt Q52060).
T1 construct: made in house; host or cells: E. coli BL21 (DE3), vector pET-21a(+)
T1 sequence (Q52060 1-312): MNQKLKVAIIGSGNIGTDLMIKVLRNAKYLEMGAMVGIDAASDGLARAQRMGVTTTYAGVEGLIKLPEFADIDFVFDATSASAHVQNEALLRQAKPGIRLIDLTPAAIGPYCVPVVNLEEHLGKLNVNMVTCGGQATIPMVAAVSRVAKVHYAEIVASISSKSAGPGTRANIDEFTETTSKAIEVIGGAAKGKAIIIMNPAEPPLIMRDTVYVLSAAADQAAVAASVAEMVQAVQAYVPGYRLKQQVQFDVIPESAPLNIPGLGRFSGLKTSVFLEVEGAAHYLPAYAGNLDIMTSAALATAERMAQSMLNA
Description: photometric test of inhibition of PS-DmpF by Crotonyl-CoA in mixtures with Butyryl-CoA. It counts as biochemical. The conditions noted are these: Butyryl-CoA and Crotonyl-CoA mixed in different ratios, Figur 4. An excerpt: Im Rahmen der Photometertests wurde festgestellt, dass die Acetaldehyd-Dehydrogenase DmpF aus Pseudomonas sp. keine Aktivität gegenüber Crotonyl-CoA zeigte. Daher wurde untersucht, ob Crotonyl-CoA kein Substrat für dieses Enzym darstellt oder eine inhibitorische Wirkung auf das Enzym aufweist. Dazu wurden Butyryl-CoA, welches von der Acetaldehyd-Dehydrogenase umgesetzt wird, und Crotonyl-CoA in unterschiedlichen Verhältnissen gemischt und die Aktivität der PS-DmpF gegen diese Substratmischungen untersucht (Figur 4). Die in Figur 4 zusammengefassten Ergebnisse zeigen, dass die Aktivität der PS-DmpF abnahm, je mehr Crotonyl-CoA im Ansatz enthalten ist. Dies bedeutet, dass Crotonyl-CoA inhibierend auf die Acetaldehyd-Dehydrogenase wirkt.

Regarding `C/C=C/C(=O)SCCNC(=O)CCNC(=O)[C@H](O)C(C)(C)COP(=O)(O)OP(=O)(O)OC[C@H]1O[C@@H](n2cnc3c(N)ncnc32)[C@H](O)[C@@H]1OP(=O)(O)O` [Crotonyl-CoA], the “inhibitorische Wirkung auf das Enzym” value is listed as “inhibierend”.
